test: Henry solubility constant Hcp at 298.15 K (mol/(m3 Pa)); settings: reference: Rex (1906)

| SMILES | Henry solubility constant Hcp |
| --- | --- |
| CCBr [bromoethane] | 0.0013 |
| CI [iodomethane] | 0.0019 |
| CC(C)I [2-iodopropane] | 0.00085 |
| ClCCl [dichloromethane] | 0.0041 |
| ClC(Cl)(Cl)Cl [tetrachloromethane] | 0.00035 |
| S=C=S [carbon disulfide] | 0.00054 |
| CC(C)Br [2-bromopropane] | 0.0009 |
| CC(C)Cl [2-chloropropane] | 0.00056 |
| CCI [iodoethane] | 0.0015 |
| BrCBr [dibromomethane] | 0.011 |
| CCCI [1-iodopropane] | 0.001 |
| CCCBr [1-bromopropane] | 0.0011 |

— Sander's compilation of Henry's law constants (doi:10.1515/zpch-1906-5519)
